According to ChEMBL document CHEMBL1287643, “3D-QSAR pharmacophore modeling and in silico screening of new Bcl-xl inhibitors” (Eur J Med Chem, 2010):

Each compound was assayed against Bcl-2-like protein 1 (Homo sapiens, UniProt Q07817) (assay: Inhibition of Bcl-XL).
Bcl-2-like protein 1, sequence (Q07817 whole entry): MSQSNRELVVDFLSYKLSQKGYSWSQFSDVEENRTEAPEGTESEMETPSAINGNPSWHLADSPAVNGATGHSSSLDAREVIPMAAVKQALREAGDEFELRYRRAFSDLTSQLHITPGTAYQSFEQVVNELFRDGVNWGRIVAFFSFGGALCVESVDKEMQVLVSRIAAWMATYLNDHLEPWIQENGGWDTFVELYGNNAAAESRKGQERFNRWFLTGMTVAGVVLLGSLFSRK

| EC50 [nM] | Structure (SMILES) |
| --- | --- |
| 150 | COC1(Cc2ccccc2C)CCN(c2ccc(C(=O)NS(=O)(=O)c3ccc(NC(CCN(C)C)CSc4ccccc4)c([N+](=O)[O-])c3)cc2)CC1 (stereo unspecified) |
| 1100 | CN(C)CCC(CSc1ccccc1)Nc1ccc(S(=O)(=O)NC(=O)c2ccc(N3CCN(Cc4ccccc4)CC3)cc2)cc1[N+](=O)[O-] (stereo unspecified) |
| 340 | CN(C)CCC(CSc1ccccc1)Nc1ccc(S(=O)(=O)NC(=O)c2ccc(N3CCN(Cc4ccccc4C4CCCCC4)CC3)cc2)cc1[N+](=O)[O-] (stereo unspecified) |
| 230 | COC1(Cc2ccccc2Cl)CCN(c2ccc(C(=O)NS(=O)(=O)c3ccc(NC(CCN(C)C)CSc4ccccc4)c([N+](=O)[O-])c3)cc2)CC1 (stereo unspecified) |
| 460 | CN(C)CCC(CSc1ccccc1)Nc1ccc(S(=O)(=O)NC(=O)c2ccc(N3CCN(Cc4ccccc4-c4ccc(S(C)(=O)=O)cc4)CC3)cc2)cc1[N+](=O)[O-] (stereo unspecified) |
| 390 | COc1ccccc1CN1CCN(c2ccc(C(=O)NS(=O)(=O)c3ccc(NC(CCN(C)C)CSc4ccccc4)c([N+](=O)[O-])c3)cc2)CC1 (stereo unspecified) |
| 18 | CN(C)CCC(CSc1ccccc1)Nc1ccc(S(=O)(=O)NC(=O)c2ccc(N3CCN(Cc4ccccc4-c4ccccc4)CC3)cc2)cc1[N+](=O)[O-] (stereo unspecified) |
| 95.1 | CSc1ccccc1CN1CCN(c2ccc(C(=O)NS(=O)(=O)c3ccc(NC(CCN(C)C)CSc4ccccc4)c([N+](=O)[O-])c3)cc2)CC1 (stereo unspecified) |
| 410 | Cc1ccccc1CN1CCN(c2ccc(C(=O)NS(=O)(=O)c3ccc(NC(CCN(C)C)CSc4ccccc4)c([N+](=O)[O-])c3)cc2)CC1 (stereo unspecified) |
| 800 | CN(C)CCC(CSc1ccccc1)Nc1ccc(S(=O)(=O)NC(=O)c2ccc(N3CCN(Cc4ccccc4-c4cccnc4)CC3)cc2)cc1[N+](=O)[O-] (stereo unspecified) |
| 380 | COc1cccc(-c2ccccc2CN2CCN(c3ccc(C(=O)NS(=O)(=O)c4ccc(NC(CCN(C)C)CSc5ccccc5)c([N+](=O)[O-])c4)cc3)CC2)c1 (stereo unspecified) |
| 130 | CN(C)CCC(CSc1ccccc1)Nc1ccc(S(=O)(=O)NC(=O)c2ccc(N3CCN(Cc4ccccc4-c4ccc(F)cc4)CC3)cc2)cc1[N+](=O)[O-] (stereo unspecified) |
| 320 | COC1(CC2CCCCC2)CCN(c2ccc(C(=O)NS(=O)(=O)c3ccc(NC(CCN(C)C)CSc4ccccc4)c([N+](=O)[O-])c3)cc2)CC1 (stereo unspecified) |
| 661 | CN(C)CCC(CSc1ccccc1)Nc1ccc(S(=O)(=O)NC(=O)c2ccc(N3CCN(Cc4ccccc4NC4CCCCC4)CC3)cc2)cc1[N+](=O)[O-] (stereo unspecified) |
| 180 | COC1(Cc2ccccc2F)CCN(c2ccc(C(=O)NS(=O)(=O)c3ccc(NC(CCN(C)C)CSc4ccccc4)c([N+](=O)[O-])c3)cc2)CC1 (stereo unspecified) |
| 30 | COc1ccc(-c2ccccc2CN2CCN(c3ccc(C(=O)NS(=O)(=O)c4ccc(NC(CCN(C)C)CSc5ccccc5)c([N+](=O)[O-])c4)cc3)CC2)cc1 (stereo unspecified) |
| 5500 | CN(C)CCC(CSc1ccccc1)Nc1ccc(S(=O)(=O)NC(=O)c2ccc(N3CCN(Cc4ccccc4S(C)(=O)=O)CC3)cc2)cc1[N+](=O)[O-] (stereo unspecified) |
| 390 | CN(C)CCC(CSc1ccccc1)Nc1ccc(S(=O)(=O)NC(=O)c2ccc(N3CCN(Cc4ccccc4C(F)(F)F)CC3)cc2)cc1[N+](=O)[O-] (stereo unspecified) |
| 56 | CN(C)CCC(CSc1ccccc1)Nc1ccc(S(=O)(=O)NC(=O)c2ccc(N3CCN(Cc4ccccc4-c4ccccc4Cl)CC3)cc2)cc1[N+](=O)[O-] (stereo unspecified) |
| 40 | CN(C)CCC(CSc1ccccc1)Nc1ccc(S(=O)(=O)NC(=O)c2ccc(N3CCN(Cc4ccccc4-c4ccc(C(F)(F)F)cc4)CC3)cc2)cc1[N+](=O)[O-] (stereo unspecified) |
| 180 | CN(C)CCC(CSc1ccccc1)Nc1ccc(S(=O)(=O)NC(=O)c2ccc(N3CCN(Cc4ccccc4-c4cccc(Cl)c4)CC3)cc2)cc1[N+](=O)[O-] (stereo unspecified) |
| 100 | COC1(Cc2ccccc2Br)CCN(c2ccc(C(=O)NS(=O)(=O)c3ccc(NC(CCN(C)C)CSc4ccccc4)c([N+](=O)[O-])c3)cc2)CC1 (stereo unspecified) |

The next lines start with the compound.

| Structure (SMILES) | EC50 [nM] |
| --- | --- |
| CN(C)CCC(CSc1ccccc1)Nc1ccc(S(=O)(=O)NC(=O)c2ccc(N3CCC(=Cc4ccc(F)cc4)CC3)cc2)cc1[N+](=O)[O-] (stereo unspecified) | 380 |
| COc1ccccc1CC1(OC)CCN(c2ccc(C(=O)NS(=O)(=O)c3ccc(NC(CCN(C)C)CSc4ccccc4)c([N+](=O)[O-])c3)cc2)CC1 (stereo unspecified) | 150 |
| COC1(Cc2ccccc2)CCN(c2ccc(C(=O)NS(=O)(=O)c3ccc(NC(CCN(C)C)CSc4ccccc4)c([N+](=O)[O-])c3)cc2)CC1 (stereo unspecified) | 681 |
| COC1(Cc2ccc(Cl)cc2)CCN(c2ccc(C(=O)NS(=O)(=O)c3ccc(NC(CCN(C)C)CSc4ccccc4)c([N+](=O)[O-])c3)cc2)CC1 (stereo unspecified) | 400 |
| COC1(Cc2ccccc2-c2ccccc2)CCN(c2ccc(C(=O)NS(=O)(=O)c3ccc(NC(CCN(C)C)CSc4ccccc4)c([N+](=O)[O-])c3)cc2)CC1 (stereo unspecified) | 35 |
| CN(C)CCC(CSc1ccccc1)Nc1ccc(S(=O)(=O)NC(=O)c2ccc(N3CCC(=Cc4cccnc4)CC3)cc2)cc1[N+](=O)[O-] (stereo unspecified) | 1900 |
| COc1ccccc1C=C1CCN(c2ccc(C(=O)NS(=O)(=O)c3ccc(NC(CCN(C)C)CSc4ccccc4)c([N+](=O)[O-])c3)cc2)CC1 (stereo unspecified) | 300 |
| CN(C)CCC(CSc1ccccc1)Nc1ccc(S(=O)(=O)NC(=O)c2ccc(N3CCC(=Cc4ccccn4)CC3)cc2)cc1[N+](=O)[O-] (stereo unspecified) | 550 |
| CN(C)CCC(CSc1ccccc1)Nc1ccc(S(=O)(=O)NC(=O)c2ccc(N3CCC(=Cc4ccccc4C#N)CC3)cc2)cc1[N+](=O)[O-] (stereo unspecified) | 1100 |
| COC1(Cc2ccc(-c3ccccc3)cc2)CCN(c2ccc(C(=O)NS(=O)(=O)c3ccc(NC(CCN(C)C)CSc4ccccc4)c([N+](=O)[O-])c3)cc2)CC1 (stereo unspecified) | 600 |
| COC1(CC(C)C)CCN(c2ccc(C(=O)NS(=O)(=O)c3ccc(NC(CCN(C)C)CSc4ccccc4)c([N+](=O)[O-])c3)cc2)CC1 (stereo unspecified) | 579 |
| CN(C)CCC(CSc1ccccc1)Nc1ccc(S(=O)(=O)NC(=O)c2ccc(N3CCC(=Cc4ccc(Cl)cc4)CC3)cc2)cc1[N+](=O)[O-] (stereo unspecified) | 619 |
| CN(C)CCC(CSc1ccccc1)Nc1ccc(S(=O)(=O)NC(=O)c2ccc(N3CCN(Cc4ccccc4-c4ccc(-c5ccccc5)cc4)CC3)cc2)cc1[N+](=O)[O-] (stereo unspecified) | 22 |
| COC1(Cc2cccc(Cl)c2)CCN(c2ccc(C(=O)NS(=O)(=O)c3ccc(NC(CCN(C)C)CSc4ccccc4)c([N+](=O)[O-])c3)cc2)CC1 (stereo unspecified) | 250 |
| CN(C)CCC(CSc1ccccc1)Nc1ccc(S(=O)(=O)NC(=O)c2ccc(N3CCC(=Cc4ccc(C(F)(F)F)cc4)CC3)cc2)cc1[N+](=O)[O-] (stereo unspecified) | 2600 |
| CN(C)CCC(CSc1ccccc1)Nc1ccc(S(=O)(=O)NC(=O)c2ccc(N3CCC(=Cc4ccccc4-c4ccccc4)CC3)cc2)cc1[N+](=O)[O-] (stereo unspecified) | 160 |
| COC1(CC(C)(C)C)CCN(c2ccc(C(=O)NS(=O)(=O)c3ccc(NC(CCN(C)C)CSc4ccccc4)c([N+](=O)[O-])c3)cc2)CC1 (stereo unspecified) | 750 |
| CN(C)CCC(CSc1ccccc1)Nc1ccc(S(=O)(=O)NC(=O)c2ccc(N3CCC(=Cc4ccccc4C(F)(F)F)CC3)cc2)cc1[N+](=O)[O-] (stereo unspecified) | 150 |
| CN(C)CCC(CSc1ccccc1)Nc1ccc(S(=O)(=O)NC(=O)c2ccc(N3CCC(=Cc4ccccc4F)CC3)cc2)cc1[N+](=O)[O-] (stereo unspecified) | 250 |
